The values below come from PMC4674819, “Identification of Novel Inhibitors of Organic Anion Transporting Polypeptides 1B1 and 1B3 (OATP1B1 and OATP1B3) Using a Consensus Vote of Six Classification Models” (Molecular Pharmaceutics, 2015).

In data set [1] the target is T1, OATP1B1 (Homo sapiens, UniProt Q9Y6L6).
T1 construct: host or cells: CHO (Chinese hamster ovary) cells, stably transfected
T1 sequence (Q9Y6L6 1-691): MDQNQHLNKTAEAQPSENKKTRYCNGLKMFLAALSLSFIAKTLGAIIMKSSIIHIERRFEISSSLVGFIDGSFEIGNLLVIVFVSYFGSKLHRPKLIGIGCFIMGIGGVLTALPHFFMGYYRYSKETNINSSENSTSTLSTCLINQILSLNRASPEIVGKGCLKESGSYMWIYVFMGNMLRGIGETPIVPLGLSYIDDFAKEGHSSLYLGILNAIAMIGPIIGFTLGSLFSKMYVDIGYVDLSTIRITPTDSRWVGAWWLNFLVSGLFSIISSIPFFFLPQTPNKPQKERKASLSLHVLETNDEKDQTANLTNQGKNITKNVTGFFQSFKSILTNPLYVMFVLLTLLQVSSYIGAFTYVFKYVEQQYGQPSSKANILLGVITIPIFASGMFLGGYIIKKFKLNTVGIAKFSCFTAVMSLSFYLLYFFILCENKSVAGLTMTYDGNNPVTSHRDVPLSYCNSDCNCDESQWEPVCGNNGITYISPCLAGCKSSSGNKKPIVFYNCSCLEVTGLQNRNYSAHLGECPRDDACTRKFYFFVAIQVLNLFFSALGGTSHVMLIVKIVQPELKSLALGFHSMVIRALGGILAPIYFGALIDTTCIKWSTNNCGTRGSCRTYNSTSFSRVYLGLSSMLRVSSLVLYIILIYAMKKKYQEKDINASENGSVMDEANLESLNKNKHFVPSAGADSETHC
Nature of the data set: Inhibition of FMTX uptake in CHO cells stably transfected with OATP1B1. In kind it is cell-based. The following applies: for IC50: CHO cells stably transfected with OATP1B1, 5 μM FMTX, 10 min, 37 °C, means ± SD of three independent experiments; for Correctness of prediction, first symbol (OATP1B1): inhibitor class from measured IC50 against the consensus prediction. On the procedure: (§1) Chinese hamster ovary (CHO) cells that were stably transfected with OATP1B1 or OATP1B3 and wild-type CHO cells were provided by the University of Zurich, Switzerland, and have been extensively characterized previously.[24],[56],[57] Cells were grown in Dulbecco’s modified Eagle medium (DMEM) supplemented with 10% FCS, 50 μg/mL L-proline, 100 U/mL penicillin, and 100 μg/mL streptomycin. The culture media of the transfected CHO cells additionally contained 500 μg/mL Geneticin sulfate (G418) (Sigma-Aldrich, Munich, Germany). Media and supplements were obtained from Invitrogen (Karlsruhe, Germany). Cells were incubated at 5% CO2 and 37 °C. For uptake experiments, CHO cells were seeded in 24-well plates (BD Biosciences, Heidelberg, Germany) at a density of 25,000 cells/well. Uptake assays were generally performed on day 3 after seeding, when the cells had grown to confluence. 24 h before starting the transport experiments, cells were additionally treated with 5 mM sodium butyrate (Sigma-Aldrich, Munich, Germany) to induce gene expression. Prior to the uptake experiments, cells were rinsed twice with 2 mL of prewarmed (37 °C) uptake buffer (116.4 mM NaCl, 5.3 mM KCL, 1 mM NaH2PO4, 0.8 mM MgSO4, 5.5 mM D-glucose, and 20 mM Hepes, pH adjusted to 7.4). Uptake was initiated by adding 0.5 mL of uptake buffer containing 5 μM of the fluorescent OATP1B1/1B3 substrate FMTX[58] in the presence or absence of inhibitors. After 10 min culture at 37 °C, uptake was stopped by removing the uptake solution and washing the cells 3 times with ice-cold uptake buffer. The cells were then lysed with 0.5 mL of 0.5% Triton X-100 solution dissolved in PBS and placed on a plate shaker for 30 min. Fluorescence was measured in an Enspire Multimode plate reader (PerkinElmer, Waltham, MA) at an excitation wavelength of 485 and an emission wavelength of 528 nm.
(§2) IC50 values were determined by plotting the log inhibitor concentration against the net uptake rate and nonlinear regression of the data set using the equation [drawing 1] in which y is the net uptake rate (pmol/μg of protein/min), I is the inhibitor concentration (μM), s is the slope at the point of inversion, and a and b are the maximum and minimum values for cellular uptake (GraphPad Software, San Diego, CA, USA) . Net uptake was calculated for each inhibitor concentration as the difference in the uptake rates of the transporter-expressing and wild-type cell lines. Unless otherwise indicated, values are expressed as mean ± SD of three individual experiments. Significant differences from control values were determined using a Student’s paired t test at a significance level of p < 0.05.

For data set [2], the target named is T2, OATP1B3 (Homo sapiens, UniProt Q9NPD5).
T2 construct: host or cells: CHO (Chinese hamster ovary) cells, stably transfected
T2 sequence (Q9NPD5 1-702): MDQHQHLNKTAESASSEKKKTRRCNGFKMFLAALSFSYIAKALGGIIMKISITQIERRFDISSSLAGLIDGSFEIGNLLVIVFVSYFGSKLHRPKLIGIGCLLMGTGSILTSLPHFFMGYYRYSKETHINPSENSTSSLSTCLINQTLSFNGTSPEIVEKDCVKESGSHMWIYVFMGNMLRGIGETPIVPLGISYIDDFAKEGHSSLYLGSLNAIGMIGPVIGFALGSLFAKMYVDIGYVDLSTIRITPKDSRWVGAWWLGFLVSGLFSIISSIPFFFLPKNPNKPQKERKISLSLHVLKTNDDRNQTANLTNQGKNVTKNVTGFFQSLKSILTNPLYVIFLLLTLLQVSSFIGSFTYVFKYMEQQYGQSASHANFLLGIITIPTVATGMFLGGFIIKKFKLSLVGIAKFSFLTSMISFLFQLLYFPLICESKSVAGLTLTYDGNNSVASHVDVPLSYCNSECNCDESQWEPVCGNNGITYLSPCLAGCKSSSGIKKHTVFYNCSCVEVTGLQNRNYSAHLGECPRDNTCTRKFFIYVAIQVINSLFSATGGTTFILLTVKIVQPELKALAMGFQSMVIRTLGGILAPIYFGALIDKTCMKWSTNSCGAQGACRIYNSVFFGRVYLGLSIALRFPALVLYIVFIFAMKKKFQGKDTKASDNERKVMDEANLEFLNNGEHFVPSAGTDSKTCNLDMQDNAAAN
Nature of the data set: Inhibition of FMTX uptake in CHO cells stably transfected with OATP1B3. The data set is classed as cell-based. The conditions noted are these: for Correctness of prediction, second symbol (OATP1B3): inhibitor class from measured IC50 against the consensus prediction. How it is done:
as §1, §2

For data set [3] the following is noted: cited from earlier work.
For data set [4], the system named is OATP1B1. Also noted: method as in PMID 25603031. The following applies: commercial library of 640 FDA-approved drugs; cited from earlier work.
For data set [5], the system named is OATP1B3. The conditions noted are these: commercial library of 640 FDA-approved drugs; cited from earlier work.
Where [6] appears, read: CHO cells stably transfected with OATP1B3, 5 μM FMTX, 10 min, 37 °C, means ± SD of three independent experiments, read-out: IC50 (μM) OATP1B3.
[7] abbreviates: remark printed after the IC50 value, read-out: OATP1B3 inhibition, remark in the IC50 cell.

Where “and” joins values, the source holds several entries; their conditions need not be identical. Equal values may be shown once. Where a name gives a salt, the structure may show the parent alone. Read-outs that look alike come from different tables or passages of the source.

On to `CC(C)C[C@H](NC(=O)[C@H](CCc1ccccc1)NC(=O)CN1CCOCC1)C(=O)N[C@@H](Cc1ccccc1)C(=O)N[C@@H](CC(C)C)C(=O)[C@@]1(C)CO1` [Carfilzomib], for which the IC50 (in general, the concentration at which inhibition is half-maximal) in data set [1] is 0.38 ± 0.12 µM; in data set [2] (setting [6]) it was 0.9 ± 0.17 µM. Besides, in data set [1], the “Correctness of prediction, first symbol (OATP1B1)” value is on record as “+++,+++ (strong inhibitor (IC50 values less than 1 μM))”. Also, the “Correctness of prediction, second symbol (OATP1B3)” value in data set [2] is recorded as “+++,+++ (strong inhibitor (IC50 values less than 1 μM))”.

As for `CCCCc1oc2ccc(NS(C)(=O)=O)cc2c1C(=O)c1ccc(OCCCN(CCCC)CCCC)cc1` [Dronedarone hydrochlorid e], in data set [1], the IC50 is 0.32 ± 0.07 µM and the “Correctness of prediction, first symbol (OATP1B1)” value is given as “+++ (strong inhibitor (IC50 values less than 1 μM))”. Also, the IC50 in data set [2] (setting [6]) turned out to be 1.12 ± 0.2 µM. For the same molecule, in data set [2], the “Correctness of prediction, second symbol (OATP1B3)” value is “++ (moderately strong inhibitor (IC50 values between 1 and 5 μM))”. Also, in data set [3], the “hepatotoxicity, literature reports” value is “some literature reports for hepatotoxicity”; the “hyperbilirubinemia, reports in online sources and literature” value (shortened to “hyperbilirubinemia, reports”) is on record as “causing hyperbilirubinemia”.

On to `Cc1cc2nc3c(=O)[nH]c(=O)nc-3n(C[C@H](O)[C@H](O)[C@H](O)COP(=O)(O)OP(=O)(O)OC[C@H]3O[C@@H](n4cnc5c(N)ncnc54)[C@H](O)[C@@H]3O)c2cc1C` [Flavin adenine dinucleotide], for which, in data set [1], the IC50 was found to be 6.62 ± 1.15 µM and the “Correctness of prediction, first symbol (OATP1B1)” value is on record as “x (wrong class prediction)”. The “OATP1B1 inhibition, result in words” value in data set [1] (false negative of the OATP1B1 consensus model) is “OATP1B1 inhibitor”. Also, the IC50 in data set [2] (setting [6]) turned out to be 10 ± 0.78 µM. In data set [2], the “Correctness of prediction, second symbol (OATP1B3)” value was “+ (moderate inhibitors (IC50 values between 5 and 10 μM))”.

In the case of `CCC(=O)O[C@@H](O[P@](=O)(CCCCc1ccccc1)CC(=O)N1C[C@H](C2CCCCC2)C[C@H]1C(=O)O)C(C)C` [Fosinopril sodium], in data set [1], the IC50 came to 6.28 ± 1.13 µM; the “Correctness of prediction, first symbol (OATP1B1)” value was “+,+ (moderate inhibitors (IC50 values between 5 and 10 μM))”. The IC50 in data set [2] (setting [6]) amounted to 5.19 ± 0.98 µM. Besides, the “Correctness of prediction, second symbol (OATP1B3)” value in data set [2] is “+,+ (moderate inhibitors (IC50 values between 5 and 10 μM))”. Further, in data set [3], the “hepatotoxicity, literature reports” value is given as “some literature reports for hepatotoxicity”; the “hyperbilirubinemia, reports” value is “causing hyperbilirubinemia”. Besides, the “rank among OATP1B1 inhibitors in the screen of van de Steeg et al.” value in data set [4] is 20 strongest OATP1B1 and OATP1B3 inhibitors. Moreover, in data set [5], the “rank among OATP1B3 inhibitors in the screen of van de Steeg et al.” value was 20 strongest OATP1B1 and OATP1B3 inhibitors.

Turning to `COc1ccc2c(c1)C(=O)N(CCc1ccc(S(=O)(=O)NC(=O)NC3CCCCC3)cc1)C(=O)C2(C)C` [Gliquidone], the values for the IC50 in data set [1] and in data set [2] (setting [6]) were 7.45 ± 1.64 µM and 1.17 ± 0.31 µM, respectively. In addition, the “Correctness of prediction, first symbol (OATP1B1)” value in data set [1] was “+ (moderate inhibitors (IC50 values between 5 and 10 μM))”. Moreover, in data set [2], the “Correctness of prediction, second symbol (OATP1B3)” value was “++ (moderately strong inhibitor (IC50 values between 1 and 5 μM))”. In addition, in data set [3] (diabetic patients), the “effect on liver injury, literature report” value was “improve liver injury”.

Consider `CS(=O)(=O)CCNCc1ccc(-c2ccc3ncnc(Nc4ccc(OCc5cccc(F)c5)c(Cl)c4)c3c2)o1` [Lapatinib], for which the IC50 is 0.37 ± 0.19 µM in data set [1]; > 10 µM and 33.8 µM in data set [2] (setting [6]); greater than 10 µM in data set [2] (setting [7]). In data set [1], the “Correctness of prediction, first symbol (OATP1B1)” value is “+++ (strong inhibitor (IC50 values less than 1 μM))”. The “Correctness of prediction, second symbol (OATP1B3)” value in data set [2] is given as “-+ (slight inhibitors (IC50 values above 10 μM))”. In addition, in data set [3], the “hepatotoxicity, literature reports” value was “some literature reports for hepatotoxicity”. For the same molecule, in data set [3], the “hyperbilirubinemia, reports” value is given as “causing hyperbilirubinemia”.

With `CN(C)c1cccc2c(S(=O)(=O)N[C@@H](Cc3ccc(OS(=O)(=O)c4cccc5c(N(C)C)cccc45)cc3)C(=O)O)cccc12` [N,O-Didansyl-L-Tyrosine], in data set [1], it took 6.07 ± 0.56 µM to reach half-maximal inhibition (IC50); the “Correctness of prediction, first symbol (OATP1B1)” value is “+ (moderate inhibitors (IC50 values between 5 and 10 μM))”. In addition, the IC50 in data set [2] (setting [6]) was 2.94 ± 0.75 µM. Besides, the “Correctness of prediction, second symbol (OATP1B3)” value in data set [2] is “++ (moderately strong inhibitor (IC50 values between 1 and 5 μM))”.

As for `CC(=O)Nc1cccc(-n2c(=O)n(C3CC3)c(=O)c3c(Nc4ccc(I)cc4F)n(C)c(=O)c(C)c32)c1` [Trametinib], the IC50 was 0.34 ± 0.09 µM in data set [1]; > 10 µM and 30.8 µM in data set [2] (setting [6]); greater than 10 µM in data set [2] (setting [7]). For the same molecule, in data set [1], the “Correctness of prediction, first symbol (OATP1B1)” value is on record as “+++ (strong inhibitor (IC50 values less than 1 μM))”. Besides, in data set [2], the “Correctness of prediction, second symbol (OATP1B3)” value is on record as “-+ (slight inhibitors (IC50 values above 10 μM))”. For the same molecule, in data set [3], the “hepatic serum enzymes, literature report” value is listed as “elevating hepatic serum enzymes”.

Take `COc1cc(C(=O)NS(=O)(=O)c2ccccc2C)ccc1Cc1cn(C)c2ccc(NC(=O)OC3CCCC3)cc12` [Zafirlukast]: in data set [1], 7.84 ± 0.49 µM corresponded to half-maximal inhibition (IC50); the “Correctness of prediction, first symbol (OATP1B1)” value is “+ (moderate inhibitors (IC50 values between 5 and 10 μM))”. Also, in data set [2] (setting [6]), the IC50 worked out at 4.96 ± 0.92 µM. Also, in data set [2], the “Correctness of prediction, second symbol (OATP1B3)” value is “++ (moderately strong inhibitor (IC50 values between 1 and 5 μM))”. Also, in data set [3], the “hepatotoxicity, literature reports” value is on record as “some literature reports for hepatotoxicity”; the “hyperbilirubinemia, reports” value is “causing hyperbilirubinemia”.
